Measurements taken from paper PMC8558867, “Development of BromoTag: A “Bump-and-Hole”–PROTAC System to Induce Potent, Rapid, and Selective Degradation of Tagged Target Proteins” (Journal of Medicinal Chemistry, 2021).
Where “and” joins values, the source holds several entries; their conditions need not be identical. Equal values may be shown once. Read-outs that look alike come from different tables or passages of the source.

How the values were obtained:
BromoTag-Brd2 [1] = assay: Dose–response degradation assay (western blot, 6 h) in heterozygous BromoTag-Brd2 HEK293 cells; assay type: cell-based, human; settings: 6 h; for DC50: read-out: DC50 of BromoTag-Brd2 degradation (DC50, 6h), single stereoisomers
BromoTag-Brd2 [2] = assay: Time course degradation assay (western blot, 0–36 h) in heterozygous BromoTag-Brd2 HEK293 cells; assay type: cell-based, human; settings: 500 nM
Procedure: Heterozygous BromoTag-Brd2 HEK293 cells were plated at a density of 5 × 10^5 cells per well of a six-well healthy plate a day prior to initiating the time course assay. […] The time point range was between 0 and 36 h. Treatment was applied in a staggered fashion to enable all time points to be harvested at the same time.
(§1) All cells were harvested on ice with RIPA lysis and extraction buffer (Thermo Fisher Scientific, 89901) supplemented with protease inhibitor cocktail (Merck, 11697498001) and Benzonase Nuclease (Sigma, E1014) before being stored at −20 °C prior to use. Total protein quantity was determined using the BCA protein assay (#23225, Pierce, Rockford, Illinois). The protein concentration was determined using the BCA assay (Thermo Fisher Scientific, 23225). The samples were then prepared and loaded onto NuPAGE 4–12% bis–tris Midi gels (Thermo Fisher Scientific, WG1403A), followed by the transfer of proteins onto nitrocellulose membranes (EMD Millipore). The membranes were blocked for 1 h prior to incubation with the primary antibodies using 5% Milk TBST. […] All western blots were analyzed for band intensities using Image Lab from Bio-Rad (LI-COR, Biosciences). The data extracted from these blots were then plotted and analyzed using Prism (v. 8.2.0, GraphPad).

VHL (VCB protein) = biological target: T1, VHL (VCB protein) (Homo sapiens, UniProt P40337); assay: FP competitive binding assay, binary binding; settings: compound alone; mean ±S.E.M., N = 4; read-out: binary affinity to VHL Kd
T1 construct: N-terminally His6-tagged VHL (54–213); His6 (N, cleaved yes); made in house; host or cells: E. coli

VHL with Brd4^BD2 L387A = biological target: T2, VHL with Brd4^BD2 L387A (Homo sapiens, UniProt O60885+P40337, L387A); assay: FP competitive binding assay, ternary complex binding (compound preincubated with Brd4^BD2 L387A)
T2 construct: N-terminally His6-tagged VHL (54–213); His6 (N, cleaved yes); made in house; host or cells: E. coli

MV-4-11 cells = assay: CellTiter-Glo 2.0 cell viability assay, MV-4-11; assay type: cell-based, human; settings: MV-4-11, up to 1–10 μM
HEK293 cells = assay: CellTiter-Glo 2.0 cell viability assay, HEK293; assay type: cell-based, human; settings: HEK293, up to 1–10 μM
BromoTag-Brd2 [3] = assay: Competition assay (inhibitor pretreatment, western blot); assay type: cell-based, human; settings: 200 nM 46 for 3 h after 1 h pretreatment
Procedure: Heterozygous BromoTag-Brd2 HEK293 cells were plated in six-well plates at a density of 5 × 10^5 cells per well in 2 mL DMEM. […] After 3 h, the cells were harvested for subsequent processing via western blot. Each treatment was performed in tandem to produce two technical repeats per condition. The six-well plates were incubated for 4 h at 37 °C and 5% CO2 throughout the experiment.
as §1

BromoTag-Brd2 [4] = assay: Recovery (washout) assay; assay type: cell-based, human
Procedure: This was performed in the genotype-verified heterozygous BromoTag-Brd2 HEK293 cell line. Heterozygous BromoTag-Brd2 HEK293 cells were plated at a density of 5 × 10^5 cells per well of a six-well plate a day before initiating the recovery assay. […] During treatment, the cells were kept at 37 °C, 5% CO2, and 95% humidity.
as §1

[5] = eight-point 10 μM to 1 nM, mean ±S.E. of two repeats

CC[C@@H](C(=O)OCCOCCOCCOCC(=O)N[C@H](C(=O)N1C[C@H](O)C[C@H]1C(=O)NCc1ccc(-c2scnc2C)cc1)C(C)(C)C)[C@@H]1N=C(c2ccc(Cl)cc2)c2c(sc(C)c2C)-n2c(C)nnc21 [AGB1 (46), (S)-13-((2S,4R)-4-Hydroxy-2-((4-(4-methylthiazol-5-yl)benzyl)carbamoyl)pyrrolidine-1-carbonyl)-14,14-dimethyl-11-oxo-3,6,9-trioxa-12-azapentadecyl (R)-2-((S)-4-(4-chlorophenyl)-2,3,9-trimethyl-6H-thieno[3,2-f][1,2,4]triazolo[4,3-a][1,4]diazepin-6-yl)butanoate]
pDC50 (Ab: Brd^4BD2 L387A) (BromoTag-Brd2 [1]; [5]): 7.8 ± 0.2 | pDC50 (Ab: BromoTag-Brd2) (BromoTag-Brd2 [1]; [5]): 7.9 ± 0.1 | DC50 (BromoTag-Brd2 [1]): 12.6 to 14.5 nM | DC50 (BromoTag-Brd2 [1]; listed as 46): 13 to 15 nM and ~13 nM | time to completely degrade BromoTag-Brd2 (BromoTag-Brd2 [2]): ≤ 6 h | Kd (VHL (VCB protein)): 125 nM | α (FP binding) (VHL with Brd4^BD2 L387A; cooperativity, Kd binary/Kd ternary, supplementary CSV): 11.1 | Kd (VHL with Brd4^BD2 L387A; preincubated with Brd4^BD2 L387A, mean ±S.E.M., N = 4, read-out: ternary binding affinity Kd): 11 nM | cooperativity (α) (VHL with Brd4^BD2 L387A; α = Kd binary/Kd ternary): 11.1 | cytotoxicity (MV-4-11 cells): lack of cytotoxicity | cytotoxicity (HEK293 cells): lack of cytotoxicity | on-target degradation activity upon pretreatment with MLN4924 or VH298 (BromoTag-Brd2 [3]; 3 μM MLN4924, 10 μM VH298): completely abrogated | on-target degradation activity upon pretreatment with MG132 (BromoTag-Brd2 [3]; 50 μM MG132): blocked | time after washout at which BromoTag-Brd2 protein levels recover (BromoTag-Brd2 [4]; 200 nM for 3 h, then washout): 24 h | on-target degradation without washout (BromoTag-Brd2 [4]; 200 nM, no washout): complete and durable on-target degradation for up to 72 h
